Earlier results on 52 sequences are cited in article PMC11982978, “Cancer hotspot mutations rewire ERK2 specificity by selective exclusion of docking interactions” (The Journal of Biological Chemistry, 2025).

For this data set, the system named is WT ERK2. The conditions noted are these: selective conditions (-His); hits Z > 3; average of three screens; cited from earlier work. An excerpt: Supplement mmc2.xlsx, sheet "WT Hits" | column: Z-score
On to “RPRCRRQPRLRLPT [EPM2A, D-site 14-mer in ELK1 Y2H prey]”, for which the “Z-score (ES) of hit sequences, WT ERK2 Y2H screen” value (shortened to “Z-score (ES) of hit sequences”) is reported as 13.05.
Regarding “QVKLRSRTSLTLPR [RGL1, D-site 14-mer in ELK1 Y2H prey]”, the “Z-score (ES) of hit sequences” value is given as 4.63.
Regarding “NGRREKRKQLTLPS [TBX2, D-site 14-mer in ELK1 Y2H prey]”, the “Z-score (ES) of hit sequences” value is on record as 10.21.
As to “KKRKIPKLVLRINA [DENND2A, D-site 14-mer in ELK1 Y2H prey]”, the “Z-score (ES) of hit sequences” value was 11.21.
For “PFGSRRSSAIGIEN [RAP1GAP, D-site 14-mer in ELK1 Y2H prey]”, the “Z-score (ES) of hit sequences” value was 5.61.
In the case of “LKQRTRPLLINLSK [MCTP2, D-site 14-mer in ELK1 Y2H prey]”, the “Z-score (ES) of hit sequences” value is listed as 3.77.
For “LQRKGGPTRLTLPS [CMIP, D-site 14-mer in ELK1 Y2H prey]”, the “Z-score (ES) of hit sequences” value is reported as 4.12.
On to “PGKRGRPRKLKLCK [MGA, D-site 14-mer in ELK1 Y2H prey]”, for which the “Z-score (ES) of hit sequences” value was 8.03.
“QGKTKRPVDLKIKN [TAGAP, D-site 14-mer in ELK1 Y2H prey]”: the “Z-score (ES) of hit sequences” value was 3.38.
As to “ARGQRSVLQVPLPV [CRNKL1, D-site 14-mer in ELK1 Y2H prey]”, the “Z-score (ES) of hit sequences” value is listed as 4.21.
For the sequence “KKARGKPVRLRLSS [MELK, D-site 14-mer in ELK1 Y2H prey]”, the “Z-score (ES) of hit sequences” value is 7.57.
On to “TKMQKKVLSLRLPC [RIN2, D-site 14-mer in ELK1 Y2H prey]”, for which the “Z-score (ES) of hit sequences” value is recorded as 7.27.
For the sequence “GLTARRLLPLRLPP [MLYCD, D-site 14-mer in ELK1 Y2H prey]”, the “Z-score (ES) of hit sequences” value is on record as 14.29.
Regarding “KPLKKKPTPVLLPQ [SEC63, D-site 14-mer in ELK1 Y2H prey]”, the “Z-score (ES) of hit sequences” value is on record as 3.34.
For the sequence “KQGGRKPKPLWLSP [KIAA0556, D-site 14-mer in ELK1 Y2H prey]”, the “Z-score (ES) of hit sequences” value is 4.98.
Regarding “RKKDRPRKHLTLNN [SP100, D-site 14-mer in ELK1 Y2H prey]”, the “Z-score (ES) of hit sequences” value is 3.83.
Consider “HFRHKSQLRLHLRQ [BCL6, D-site 14-mer in ELK1 Y2H prey]”, for which the “Z-score (ES) of hit sequences” value was 5.64.
Turning to “EEEFRKLTNVRIMK [PTPRE, D-site 14-mer in ELK1 Y2H prey]”, the “Z-score (ES) of hit sequences” value is 8.60.
With “KSRQKNPRSLCIQP [MTUS1, D-site 14-mer in ELK1 Y2H prey]”, the “Z-score (ES) of hit sequences” value is on record as 4.97.
With “SLARAKRPSVSFAE [SCARF1, D-site 14-mer in ELK1 Y2H prey]”, the “Z-score (ES) of hit sequences” value was 5.09.
Regarding “KRWLRKPRPVSLFS [GTF3C1, D-site 14-mer in ELK1 Y2H prey]”, the “Z-score (ES) of hit sequences” value is listed as 5.35.
For “CELPRRNCLLPFSN [NSD1, D-site 14-mer in ELK1 Y2H prey]”, the “Z-score (ES) of hit sequences” value was 3.49.
Take “AAGRRAAPYLVLTA [TFR2, D-site 14-mer in ELK1 Y2H prey]”: the “Z-score (ES) of hit sequences” value was 3.19.
With “SGDPRKPRQLTVGD [ZMYND15, D-site 14-mer in ELK1 Y2H prey]”, the “Z-score (ES) of hit sequences” value was 5.02.
On to “KGKSKRKKDLRISC [MAP2K3, D-site 14-mer in ELK1 Y2H prey]”, for which the “Z-score (ES) of hit sequences” value is given as 10.02.
Regarding “IKMKPKPRILSIKS [MAP9, D-site 14-mer in ELK1 Y2H prey]”, the “Z-score (ES) of hit sequences” value is 3.08.
For the sequence “GRPLRLPPPLRLLR [GNAS, D-site 14-mer in ELK1 Y2H prey]”, the “Z-score (ES) of hit sequences” value was 3.08.
“KTKRNKILKLKFPR [ATP8B1, D-site 14-mer in ELK1 Y2H prey]”: the “Z-score (ES) of hit sequences” value was 3.62.
Take “MQKKIKIPKLSLNH [BEND5, D-site 14-mer in ELK1 Y2H prey]”: the “Z-score (ES) of hit sequences” value is on record as 3.94.
As for “RKARRLEPGLLLPG [SOX18, D-site 14-mer in ELK1 Y2H prey]”, the “Z-score (ES) of hit sequences” value is on record as 7.78.
Take “PLPRRTRRPLLLPR [HPS4, D-site 14-mer in ELK1 Y2H prey]”: the “Z-score (ES) of hit sequences” value is reported as 7.88.
In the case of “QVPKKAWRKLKLPG [DCAF11, D-site 14-mer in ELK1 Y2H prey]”, the “Z-score (ES) of hit sequences” value is recorded as 5.07.
“NQKKPALKKLTLLP [IWS1, D-site 14-mer in ELK1 Y2H prey]”: the “Z-score (ES) of hit sequences” value is listed as 4.19.
“KQRKLSPLRLSVSN [KMT2E, D-site 14-mer in ELK1 Y2H prey]”: the “Z-score (ES) of hit sequences” value is 4.49.
In the case of “PDRKAKPTPLDLRN [GAB2, D-site 14-mer in ELK1 Y2H prey]”, the “Z-score (ES) of hit sequences” value is 7.63.
Turning to “AKRRIANLKIQLAK [WWC1, D-site 14-mer in ELK1 Y2H prey]”, the “Z-score (ES) of hit sequences” value is given as 3.55.
Consider “KCSRKKKPKLSLKA [L3MBTL3, D-site 14-mer in ELK1 Y2H prey]”, for which the “Z-score (ES) of hit sequences” value is 10.66.
On to “PKDKKRPTPLEIGY [PCLO, D-site 14-mer in ELK1 Y2H prey]”, for which the “Z-score (ES) of hit sequences” value is 4.93.
On to “KGVKHRPPPIKLPS [SUPT20H, D-site 14-mer in ELK1 Y2H prey]”, for which the “Z-score (ES) of hit sequences” value is 18.07.
For the sequence “IPKNRIHHKLVLPS [CENPC, D-site 14-mer in ELK1 Y2H prey]”, the “Z-score (ES) of hit sequences” value is given as 3.05.
Regarding “KKSRVPPPPILLSR [CFAP54, D-site 14-mer in ELK1 Y2H prey]”, the “Z-score (ES) of hit sequences” value is recorded as 11.93.
Consider “PGRRQNTIVVKVPG [BANP, D-site 14-mer in ELK1 Y2H prey]”, for which the “Z-score (ES) of hit sequences” value is reported as 5.25.
With “EKVKRKKNVLRLCC [PRAME, D-site 14-mer in ELK1 Y2H prey]”, the “Z-score (ES) of hit sequences” value is on record as 4.69.
Regarding “DTPIRKKEELLFDD [FBF1, D-site 14-mer in ELK1 Y2H prey]”, the “Z-score (ES) of hit sequences” value is recorded as 3.49.
For the sequence “PDRKVKPAPLEIKP [GAB1, D-site 14-mer in ELK1 Y2H prey]”, the “Z-score (ES) of hit sequences” value is on record as 10.25.
“RKPRSPPRALVLPH [PEG10, D-site 14-mer in ELK1 Y2H prey]”: the “Z-score (ES) of hit sequences” value is given as 3.94.
Consider “LKQRRRAQKLHFLQ [DDX54, D-site 14-mer in ELK1 Y2H prey]”, for which the “Z-score (ES) of hit sequences” value is listed as 3.41.
On to “PIKQKRKLRIFISN [SMARCD1, D-site 14-mer in ELK1 Y2H prey]”, for which the “Z-score (ES) of hit sequences” value is reported as 4.04.
For “RQKKERPHMLNLSG [SYDE2, D-site 14-mer in ELK1 Y2H prey]”, the “Z-score (ES) of hit sequences” value is 5.14.
On to “KTQRLDVAKVCLGN [IFT140, D-site 14-mer in ELK1 Y2H prey]”, for which the “Z-score (ES) of hit sequences” value is listed as 4.26.
As for “KKGVKPKLVLNVTS [CMYA5, D-site 14-mer in ELK1 Y2H prey]”, the “Z-score (ES) of hit sequences” value is 4.91.
In the case of “IFQRQRVDALLLDL [MED6, D-site 14-mer in ELK1 Y2H prey]”, the “Z-score (ES) of hit sequences” value is reported as 7.05.
